According to US9493489B2, “Boron-containing small molecules as anti-protozoal agents” (Anacor Pharmaceuticals, Inc., priority 2008, dated 2016):

Tests used:
[1] = system: cytochrome P450 enzyme (CP1A2, 2C9, 2D6, 3A4, CYP2C19); assay: Cytochrome P450 inhibition; type: in vitro ADME; conditions: CP1A2, 2C9, 2D6 and 3A4
[2] = system: LAB 110 EATRO strain of T. b. brucei; assay: Acute Murine Model A; type: in vivo, Swiss Webster mice; conditions: for mice parasite free: ip, BID for 4 days; for T. brucei Minimum Effective Dose: bid × 4 days
Protocol: Female Swiss Webster mice were inoculated with 250,000 parasites of the LAB 110 EATRO strain of T. b. brucei. 24 hrs post-infection, treatment was initiated BID for 4 days with 20 mg/kg/dose (40 mg/kg/day) intraperitoneally (IP) or orally (PO), 5 mg/kg BID or 10 mg/kg BID orally (PO). N=3 mice/group. Mice were monitored for 30 days for survival. Pentamidine at 2 mg/kg IP was used as the positive control. After 10 days, 0% of the untreated mice were parasite free. After 10 days, 100% of mice treated with 20 mg/kg, ip, BID of 6-(4-chlorophenylsulfinyl)benzo[c][1,2]oxaborol-1(3H)-ol were parasite free. After 30 days, 100% of mice treated with 10 mg/kg, ip, BID of N-(1-hydroxy-1,3-dihydrobenzo[c][1,2]oxaborol-6-yl)-2-(trifluoromethyl)benzamide were parasite free.

[3] = In vitro metabolism, mouse/human liver microsomes; type: in vitro ADME; conditions: read-out: in vitro metabolism T1/2 (Mouse/human liver microsomes)
[4] = system: T. b. brucei or T. b. rhodesiense; assay: Acute Murine Model B; type: in vivo, BALB/C mice; conditions: after 55 days; 50 mg/kg BID IP for 5 days
Protocol: Female BALB/C mice were inoculated with 600 parasites of T. b. brucei or 10^4 parasites of T. b. rhodesiense. 24 hrs post-infection, treatment with 6-(4-chlorophenylsulfinyl)benzo[c][1,2]oxaborol-1(3H)-ol was initiated BID for 5 days at 50 mg/kg BID intraperitoneally (IP). Mice were monitored for 40-60 days for survival. After 10 days, 20% of the untreated mice were parasite free and at 20 days, 0% of the untreated mice were parasite free. After 55 days, 100% of mice treated with 6-(4-chlorophenylsulfinyl)benzo[c][1,2]oxaborol-1(3H)-ol were parasite free.

[5] = system: TREU 667 strain of T. b. brucei; assay: Chronic CNS Model; type: in vivo, mice
Protocol: Mice were infected with 10,000 parasites of the TREU 667 strain of T. b. brucei. Twenty one days post-infection mice were treated with 50 mg/kg of the compound BID for 7 days intraperitoneally (IP). Positive control mice were treated with Berenil on Day 4 post-infection. Negative control mice were treated with Berenil on Day 21. Since Berenil is not able to penetrate the CNS, mice treated at Day 21 are not able to cure the infection. Starting 1 week after the end of treatment, mice are monitored for parasitemia and sacrificed if parasites are detected in the blood. Mice that survive 6 months are considered “cured.”

[6] = In vitro metabolism, mouse S9; type: in vitro ADME; conditions: S9 fraction, read-out: in vitro metabolism T1/2 (Mouse S9)
[7] = biological target: P-gp transporter (Homo sapiens, UniProt P08183); assay: P-gp transporter substrate assessment; type: in vitro ADME
[8] = system: L. infantum MHOM/MA(BE)/67; assay: Leishmania infantum macrophage screening assay; type: cell-based; conditions: 120 h, primary screen, reference drugs, primary peritoneal mouse macrophages, 5 days incubation
Protocol: Parasite and cell cultures. Two Leishmania species (L. infantum MHOM/MA(BE)/67 and L. donovani MHOM/ET/67/L82) were used. The strains were maintained in the Golden Hamster (Mesocricetus auratus). Amastigotes were collected from the spleen of an infected donor hamster using three centrifugation purification steps (300 rpm, keeping the supernatant, 2200 rpm, keeping the supernatants and 3500 rpm, keeping the pellet) and spleen parasite burdens were assessed using the Stauber technique (Stauber L A., Exp Parasitol. 18: 1-11 (1966)). Primary peritoneal mouse macrophages were used as host cell and were collected 2 days after peritoneal stimulation with a 2% potato starch suspension. […]
Assays were performed in 96-well microtiter plates, each well contained 10 μl of the compound dilutions together with 190 μl of macrophage/parasite inoculum (3×10^3 cells+4.5×10^5 parasites/well). […] After 5 days incubation, parasite burdens (mean number of amastigotes/macrophage) were microscopically assessed after staining the cells with a 10% Giemsa solution. The results were expressed as % reduction in parasite burden compared to untreated control wells and an IC50 (50% inhibitory concentration) was calculated. […]
Leishmania infantum MHOM/MA(BE)/67 and L. donovani MHOM/ET/67/L82 strains were used and the IC50-values were determined using an extended dose range (2-fold compound dilutions). […]

Sequence of P-gp transporter (P08183 whole entry): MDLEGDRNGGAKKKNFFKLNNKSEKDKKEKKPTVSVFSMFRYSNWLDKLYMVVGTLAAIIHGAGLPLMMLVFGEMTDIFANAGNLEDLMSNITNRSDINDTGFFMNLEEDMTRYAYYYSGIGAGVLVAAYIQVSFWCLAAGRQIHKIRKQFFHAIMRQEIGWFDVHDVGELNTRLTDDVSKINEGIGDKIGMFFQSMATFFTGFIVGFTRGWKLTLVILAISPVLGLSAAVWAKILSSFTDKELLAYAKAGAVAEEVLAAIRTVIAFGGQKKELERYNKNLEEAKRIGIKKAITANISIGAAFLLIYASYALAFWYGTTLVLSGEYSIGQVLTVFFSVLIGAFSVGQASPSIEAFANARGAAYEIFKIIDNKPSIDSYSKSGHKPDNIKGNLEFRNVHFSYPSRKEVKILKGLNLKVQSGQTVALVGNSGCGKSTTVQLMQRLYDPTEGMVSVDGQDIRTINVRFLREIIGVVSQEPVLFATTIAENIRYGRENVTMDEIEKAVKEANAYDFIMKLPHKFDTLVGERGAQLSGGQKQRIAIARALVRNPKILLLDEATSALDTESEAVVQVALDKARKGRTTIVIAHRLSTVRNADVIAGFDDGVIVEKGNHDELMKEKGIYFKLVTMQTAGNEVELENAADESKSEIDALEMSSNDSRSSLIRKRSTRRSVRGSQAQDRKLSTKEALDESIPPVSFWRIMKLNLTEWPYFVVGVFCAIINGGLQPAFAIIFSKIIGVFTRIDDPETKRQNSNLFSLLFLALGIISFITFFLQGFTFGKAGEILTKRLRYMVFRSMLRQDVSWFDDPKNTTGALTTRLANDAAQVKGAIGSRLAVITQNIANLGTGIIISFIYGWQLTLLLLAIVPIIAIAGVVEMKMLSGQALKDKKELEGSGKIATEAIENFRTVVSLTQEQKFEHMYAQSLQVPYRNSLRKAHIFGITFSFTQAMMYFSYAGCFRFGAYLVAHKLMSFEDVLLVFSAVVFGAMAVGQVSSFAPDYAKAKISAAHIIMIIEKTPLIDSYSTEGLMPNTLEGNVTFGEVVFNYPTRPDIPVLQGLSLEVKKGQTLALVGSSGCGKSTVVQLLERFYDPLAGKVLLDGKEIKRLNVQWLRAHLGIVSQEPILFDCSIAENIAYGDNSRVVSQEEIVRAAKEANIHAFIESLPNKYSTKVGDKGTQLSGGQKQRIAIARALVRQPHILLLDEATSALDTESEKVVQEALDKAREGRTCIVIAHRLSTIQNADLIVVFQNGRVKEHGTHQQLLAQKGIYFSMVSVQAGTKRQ

## [O-][S+](c1ccc(Cl)cc1)c1ccc2c(c1)B(O)OC2 (stereo not shown) [6-(4-chlorophenylsulfinyl)benzo[c][1,2]oxaborol-1(3H)-ol]
[1]
  inhibition of a cytochrome P450 enzyme: does not inhibit
[2]; after 10 days, 20 mg/kg
  mice parasite free: 100%
[3]
  half-life: > 5.83 h
[4]
  mice parasite free: 100%

## N=C(N)c1ccc(/N=N/Nc2ccc(C(=N)N)cc2)cc1 [Diminazene, reference compound]
[5]; treated on Day 21 post-infection
  day by which all animals relapsed to exhibit blood parasitemia: ≤ 53 days

## O=C(Nc1ccc2c(c1)B(O)OC2)c1ccccc1C(F)(F)F [H1, N-(1-hydroxy-1,3-dihydrobenzo[c][1,2]oxaborol-6-yl)-2-(trifluoromethyl)benzamide]
[2]; route ip
  T. brucei Minimum Effective Dose: 10 mg/kg, bid × 4 days

## O=C(Nc1ccc2c(c1)B(O)OC2)c1ccccc1Cl [H7, 2-Chloro-N-(1-hydroxy-1,3-dihydro-benzo[c][1,2]oxaborol-6-yl)-benzamide]
[5]; additional results
  mice parasite free for at least 100 days: 100%
[2]; route po
  T. brucei Minimum Effective Dose: 10 mg/kg, bid × 4 days

## O=C(Nc1ccc2c(c1)B(O)OC2)c1cc(F)ccc1C(F)(F)F [H17, 5-Fluoro-N-(1-hydroxy-1,3-dihydro-benzo[c][1,2]oxaborol-6-yl)-2-trifluoromethyl-benzamide]
[5]; additional results
  mice parasite free for at least 60 days: 100%
[2]; route po
  T. brucei Minimum Effective Dose: 5 mg/kg, bid × 4 days

## O=C(Nc1ccc2c(c1)B(O)OC2)c1ccc(F)cc1C(F)(F)F [H19, 4-Fluoro-N-(1-hydroxy-1,3-dihydro-benzo[c][1,2]oxaborol-6-yl)-2-trifluoromethyl-benzamide]
[5]; additional results
  mice parasite free for at least 100 days: 100%
[2]; route po
  T. brucei Minimum Effective Dose: 5 mg/kg, bid × 4 days

## O=C(Nc1ccc2c(c1)B(O)OC2)c1ccccc1C(F)(F)F [N-(1-hydroxy-1,3-dihydrobenzo[c][1,2]oxaborol-6-yl)-2-(trifluoromethyl)benzamide]
[1]
  inhibition of a cytochrome P450 enzyme: does not inhibit
[5]; 50 mg/kg BID for 7 days IP, starting at Day 21 post-infection
  mice with absence of blood parasites through Day 91: 70%
[6]
  half-life: 3.33 to 3.75 h
[2]; after 30 days, 10 mg/kg
  mice parasite free: 100%
[7]
  substrate for the P-gp transporter: not a substrate
[3]
  half-life: 5.67 to 6 h

## CCCCCCCCCCCCCCCCOP(=O)([O-])OCC[N+](C)(C)C [miltefosin]
[8]
  IC50: 4.3 µM
